These results are taken from paper PMC11547093, “Novel Phenoxyalkanoic Acid Derivatives as Free Fatty Acid Receptor 4 Agonists for Treating Type 2 Diabetes Mellitus” (International Journal of Molecular Sciences, 2024).

One data set concerns the target T1, human FFAR4 (Homo sapiens, UniProt Q5NUL3).
T1 sequence (Q5NUL3 1-361): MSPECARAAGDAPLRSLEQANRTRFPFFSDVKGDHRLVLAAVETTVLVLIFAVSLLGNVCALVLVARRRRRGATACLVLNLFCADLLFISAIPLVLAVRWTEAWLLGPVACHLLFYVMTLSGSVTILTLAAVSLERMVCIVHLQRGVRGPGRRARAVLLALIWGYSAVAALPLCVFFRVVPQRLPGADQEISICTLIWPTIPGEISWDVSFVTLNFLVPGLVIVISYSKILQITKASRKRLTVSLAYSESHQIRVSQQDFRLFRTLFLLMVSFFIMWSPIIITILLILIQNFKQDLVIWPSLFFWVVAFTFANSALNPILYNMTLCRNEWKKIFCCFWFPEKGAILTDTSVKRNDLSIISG
Briefly: cell-based.

Another data set has as its system normal ICR mice. Briefly: oral glucose tolerance test in normal ICR mice. The settings on record: 20 mg/kg by gavage 30 min before glucose 2 g/kg, AUC 0-120 min.
In another data set the test system is DIO mice. In words: anti-hyperglycemic effects (OGTT, insulin) in diet-induced obese (DIO) mice. The data set is classed as in vivo, C57BL/6 mice. The settings on record: for reduction of blood glucose AUC versus vehicle-treated group: AUC -30 to 120 min. How it is done: During the experimental period, plasma insulin levels were measured 30 min after glucose administration using an insulin ELISA Kit.
Plasma insulin levels were measured using a mouse insulin RIA kit 30 min after oral glucose loading (Beijing North Institute of Biological Technology, Beijing, China).

The target of the next data set is T2, human FFAR1 (Homo sapiens, UniProt O14842).
T2 construct: expressed in transfected cells; host or cells: CHO cells
Briefly: calcium influx assay, hFFAR1 (hGPR40) agonistic activity in transfected CHO cells. The data set is classed as cell-based.

Data set [1] can be described thus: pharmacokinetic study in ICR mice. The data set is classed as in vivo. Conditions: oral 10 mg/kg. The procedure:
The AUC was calculated using the trapezoidal method.
Plasma was collected and precipitated using two volumes of acetonitrile containing an internal standard. This step was followed by centrifugation at 15.680 g for 10 min after vortexing for 5 min. The supernatant was diluted with acetonitrile, and 10 µL of the supernatant was analyzed by Waters LC-PDA-MS/MS to determine plasma drug levels. Pharmacokinetic parameters were determined using mean data from four mice at each time point. Statistical analysis of the data was performed using the DAS 2.1.1 statistical software program (BioVoice, Shanghai, China).

Structures are written as SMILES.

T2 sequence (O14842 whole entry): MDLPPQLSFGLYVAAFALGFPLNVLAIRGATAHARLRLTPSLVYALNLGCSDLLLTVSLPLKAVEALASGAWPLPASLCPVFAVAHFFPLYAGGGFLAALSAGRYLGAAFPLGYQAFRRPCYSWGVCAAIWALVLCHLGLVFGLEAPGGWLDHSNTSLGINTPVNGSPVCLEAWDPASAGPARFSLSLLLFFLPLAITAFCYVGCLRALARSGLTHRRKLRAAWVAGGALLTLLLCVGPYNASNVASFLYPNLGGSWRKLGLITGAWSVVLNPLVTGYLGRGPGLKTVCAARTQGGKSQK
Method for normal ICR mice: Compounds (20 mg/kg) or the vehicle was administered by gavage 30 min before glucose administration (2 g/kg). […] The test compounds were dissolved in 0.5% methyl cellulose (MC) and vortexed before the study initiation. […] The exact dose volume was calculated separately for each animal. […] Blood glucose levels were measured using blood glucose test strips (Sannuo GA-3 type; Changsha, China).

As a reminder, the EC50 is the midpoint of the concentration-response curve. `Cc1ccc(-c2ccc(F)cc2NC(=O)c2ccc(OCC(=O)O)cc2)cc1` [Compound 1f, 2-(4-((4-fluoro-4′-methyl-[1,1′-biphenyl]-2-yl)carbamoyl)phenoxy)acetic acid]: the EC50 at human FFAR4 was 136 nM.
Still for that read-out and setting: next, `Cc1ccc(-c2ccc(F)cc2NC(=O)c2ccc(OCCCCC(=O)O)c(F)c2)cc1` [Compound 12f, 5-(2-fluoro-4-((4-fluoro-4′-methyl-[1,1′-biphenyl]-2-yl)carbamoyl)phenoxy)pentanoic acid]: 127 nM; `Cc1ccc(-c2ccc(F)cc2NC(=O)c2ccc(OCCCC(=O)O)cc2C)cc1` [Compound 8f, 4-(4-((4-fluoro-4′-methyl-[1,1′-biphenyl]-2-yl)carbamoyl)-3-methylphenoxy)butanoic acid]: 246 nM.
In turn, `Cc1ccc(-c2ccc(F)cc2NC(=O)c2ccc(OCCCC(=O)O)c(C)c2)cc1` [Compound 5f, 4-(4-((4-fluoro-4′-methyl-[1,1′-biphenyl]-2-yl)carbamoyl)-2-methylphenoxy)butanoic acid] came in with an EC50 at human FFAR4 of 113 nM. The “reduction of blood glucose AUC versus vehicle-treated group” value (from here on “reduction”) with normal ICR mice was 16.7%.
At human FFAR4, `Cc1ccc(-c2ccc(F)cc2NC(=O)c2ccc(OCCCCC(=O)O)cc2C)cc1` [Compound 9f, 5-(4-((4-fluoro-4′-methyl-[1,1′-biphenyl]-2-yl)carbamoyl)-3-methylphenoxy)pentanoic acid] yielded an EC50 of 279 nM.
`Cc1ccc(-c2ccc(F)cc2NC(=O)c2ccc(OCC(=O)O)c(C)c2)cc1` [Compound 4f, 2-(4-((4-fluoro-4′-methyl-[1,1′-biphenyl]-2-yl)carbamoyl)-2-methylphenoxy)acetic acid] registered an EC50 on human FFAR4 of 145 nM.
Still for that read-out and setting: the result for `Cc1ccc(-c2ccc(F)cc2NC(=O)c2ccc(OCC(=O)O)cc2C)cc1` [Compound 7f, 2-(4-((4-fluoro-4′-methyl-[1,1′-biphenyl]-2-yl)carbamoyl)-3-methylphenoxy)acetic acid] reads 189 nM; that for `Cc1ccc(-c2ccc(F)cc2NC(=O)c2ccc(OCCCC(=O)O)cc2)cc1` [Compound 2f, 4-(4-((4-fluoro-4′-methyl-[1,1′-biphenyl]-2-yl)carbamoyl)phenoxy)butanoic acid], 189 nM.
What is called Tmax is the time at which the peak concentration occurs. By AUC is commonly meant the area under the concentration-time curve, a measure of exposure. High values mean high exposure, low ones low exposure. The Cmax is the maximum level reached in the sampled fluid or tissue. Usually half-life stands for the time in which the quantity being followed falls by half. Low values mean fast loss, high ones slow loss. Regarding `Cc1ccc(-c2ccc(F)cc2NC(=O)c2ccc(OCC(=O)O)c(F)c2)cc1` [Compound 10f, 2-(2-fluoro-4-((4-fluoro-4′-methyl-[1,1′-biphenyl]-2-yl)carbamoyl)phenoxy)acetic acid], the half-maximal effective concentration (EC50) came to 78.6 nM at human FFAR4 and 32900 nM on human FFAR1 (human FFAR1 transfected CHO cells, calcium influx). Further, the figures for the “reduction” value with normal ICR mice, in the data set with DIO mice (30 mg/kg oral 30 min before glucose 2 g/kg) and with DIO mice (100 mg/kg oral 30 min before glucose 2 g/kg) were 30.8%, 20.1% and 32.4%, respectively. Moreover, the hypoglycemic effect result in the data set with DIO mice (doses exceeding 10 mg/kg oral) is “significant hypoglycemic activity”; in the data set with DIO mice (lower doses 1 mg/kg and 3 mg/kg oral) it was “did not exhibit significant hypoglycemic effects”. Further, in the data set with DIO mice (doses greater than 10 mg/kg, 30 min after glucose administration), the “plasma insulin level versus control group” value is recorded as “significantly higher”. The “hypoglycemia during the experiment” value in the data set on DIO mice (doses up to 100 mg/kg oral) is on record as “no hypoglycemia was observed”. Besides, the “potency in stimulating FFAR4 over FFAR1 (selectivity)” value at human FFAR1 (FFAR4 versus FFAR1) was “approximately 400 fold”. Besides, in data set [1] (male, mouse, plasma), the time to peak (Tmax) is 0.5 h. In data set [1] (male, mouse, plasma, 0 to 24 h, mean ± SD of four mice), this compound came in with an AUC of 9830 ± 2930 ng·h/mL. In data set [1] (male, mouse, plasma, 0.5% methyl cellulose, mean ± SD of four mice), the Cmax amounted to 3140 ± 1150 ng/mL. For the same compound, the half-life in data set [1] (male, mouse, plasma, mean ± SD of four mice) is 1.51 ± 0.51 h. In addition, the “Cmax relative to TUG-891” value in data set [1] stood at 2.5 times.
For `Cc1ccc(-c2ccc(F)cc2NC(=O)c2ccc(OCCCCC(=O)O)cc2)cc1` [Compound 3f, 5-(4-((4-fluoro-4′-methyl-[1,1′-biphenyl]-2-yl)carbamoyl)phenoxy)pentanoic acid], a half-maximal response on human FFAR4 (EC50) required 236 nM.
As for `Cc1ccc(-c2ccc(F)cc2NC(=O)c2ccc(OCCCC(=O)O)c(F)c2)cc1` [Compound 11f, 4-(2-fluoro-4-((4-fluoro-4′-methyl-[1,1′-biphenyl]-2-yl)carbamoyl)phenoxy)butanoic acid], a half-maximal effect at human FFAR4 (EC50) was put at 93.2 nM. Besides, the “reduction” value with normal ICR mice is listed as 20.0%.
At human FFAR4, `Cc1ccc(-c2ccc(F)cc2NC(=O)c2ccc(OCCCCC(=O)O)c(C)c2)cc1` [Compound 6f, 5-(4-((4-fluoro-4′-methyl-[1,1′-biphenyl]-2-yl)carbamoyl)-2-methylphenoxy)pentanoic acid] showed a half-maximal effective concentration (EC50) of 218 nM.
